Laboratory results as given in PMC9486168, “Protein-protein interaction-based high throughput screening for adenylyl cyclase 1 inhibitors: Design, implementation, and discovery of a novel chemotype” (Frontiers in Pharmacology, 2022).
Like-named read-outs stand apart in the source and are kept apart here.

Columns and labels:
AC1-C1b/CaM = target: T1, AC1-C1b/CaM (Homo sapiens, UniProt P0DP23); experiment: AC1-C1b/CaM fluorescence polarization (FP) assay; assay type: binding; settings: for IC50: 100 nM AC1-C1b, 100 nM GST-CaM, 95% CI in brackets; for Ki: Cheng-Prusoff from FP IC50 and Kd; for AC1-CaM FP % inhib: relative to 100 μM CDZ (100% inhibition), highest concentration tested
T1 construct: made in house; host or cells: E. coli BL21-CodonPlus (DE3)-RIPL

AC8-Nt/CaM = target: T2, AC8-Nt/CaM (Homo sapiens, UniProt P0DP23); experiment: AC8-Nt/CaM FP counterscreen assay; assay type: binding; settings: for Ki (μM) AC8 NT: Cheng-Prusoff from FP IC50 and Kd, n/i given where none; for Ki ratio (AC8 NT/AC1): ratio >1: more potent in AC1/CaM FP;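 as to all read-outs here: fluorescence polarization of AC peptide binding GST-CaM in HEPES buffer with CaCl2, compound preincubated with CaM 30 min, peptide read after 2 h at room temperature in dark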
T2 construct: made in house; host or cells: E. coli BL21-CodonPlus (DE3)-RIPL

AC8-C2b/CaM = target: T3, AC8-C2b/CaM (Homo sapiens, UniProt P0DP23); experiment: AC8-C2b/CaM FP counterscreen assay; assay type: binding; settings: for Ki (μM) AC8 C2b: Cheng-Prusoff from FP IC50 and Kd, n/i given where none; for Ki ratio (AC8-C2b/AC1): ratio >1: more potent in AC1/CaM FP;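 as to all read-outs here: fluorescence polarization of AC peptide binding to GST-CaM in HEPES buffer with KCl and 50 µM CaCl2, compound preincubated 30 min with GST-CaM, DMSO and calmidazolium as controls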
T3 construct: made in house; host or cells: E. coli BL21-CodonPlus (DE3)-RIPL

AC1/CaM PPI = target: T4, AC1/CaM PPI (Homo sapiens, UniProt P0DP23); experiment: AC1/CaM NanoBiT assay in HEK293T cells; assay type: cell-based; settings: HEK293T, thapsigargin-stimulated, AUC; read-out: Nanobit: AC1-CaM IC50 (μM ± SEM)
T4 construct: human AC1 (hAC1) residues 1–1,118 were cloned; The hCaM residues 1–149, residues 1–1,248 of rat AC8 (rAC8); expressed in transfected cells; host or cells: HEK293T, transient transfection

AC8/CaM PPI = target: T5, AC8/CaM PPI (Homo sapiens, UniProt P0DP23); experiment: AC8/CaM NanoBiT assay in HEK293T cells; assay type: cell-based, rat; settings: for IC50: HEK293T, thapsigargin-stimulated, AUC, read-out: Nanobit: AC8-CaM IC50 (μM ± SEM); for fold selective for AC8 over AC1 in the NanoBiT assay: AC8/CaM vs AC1/CaM NanoBiT
T5 construct: confirmed as an AC1/AC8 non-selective hit against full-length AC1- and AC8-CaM in the NanoBiT assay; The hCaM residues 1–149, residues 1–1,248 of rat AC8 (rAC8); expressed in transfected cells; host or cells: HEK293T, transient transfection

[1] = CellTiter-Glo 2.0 cell viability assay; assay type: cell-based; settings: human, HEK293T cells, pH 7.4; for viability at 30 min: at the compound's AC1/CaM NanoBiT IC50 concentration, read-out: % Viable Cells at AC1 IC50;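 as to all read-outs here: luminescence read-out after 30 min compound exposure at 37 °C in HEPES-buffered HBSS, scaled to vehicle-treated cells as 100% and cell-free buffer wells as 0%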
HEK293T cells = experiment: CellTiter-Glo 2.0 cell viability assay; assay type: cell-based;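 also: luminescence read-out after 30 min compound exposure at 37 °C in HEPES-buffered HBSS, scaled to vehicle-treated cells as 100% and cell-free buffer wells as 0%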
AC1 = target: T6, AC1 (Homo sapiens, UniProt Q08828); experiment: cAMP accumulation assay, AC1-HEK Δ3/6 KO cells; assay type: cell-based; settings: for inhibition of AC1 activity (efficacy): initial characterization of hits, data not shown; for inhibition of AC1 activity: CDI analog set, maximal inhibition of A23187 response
T6 construct: expressed in transfected cells
T6 sequence (Q08828 whole entry): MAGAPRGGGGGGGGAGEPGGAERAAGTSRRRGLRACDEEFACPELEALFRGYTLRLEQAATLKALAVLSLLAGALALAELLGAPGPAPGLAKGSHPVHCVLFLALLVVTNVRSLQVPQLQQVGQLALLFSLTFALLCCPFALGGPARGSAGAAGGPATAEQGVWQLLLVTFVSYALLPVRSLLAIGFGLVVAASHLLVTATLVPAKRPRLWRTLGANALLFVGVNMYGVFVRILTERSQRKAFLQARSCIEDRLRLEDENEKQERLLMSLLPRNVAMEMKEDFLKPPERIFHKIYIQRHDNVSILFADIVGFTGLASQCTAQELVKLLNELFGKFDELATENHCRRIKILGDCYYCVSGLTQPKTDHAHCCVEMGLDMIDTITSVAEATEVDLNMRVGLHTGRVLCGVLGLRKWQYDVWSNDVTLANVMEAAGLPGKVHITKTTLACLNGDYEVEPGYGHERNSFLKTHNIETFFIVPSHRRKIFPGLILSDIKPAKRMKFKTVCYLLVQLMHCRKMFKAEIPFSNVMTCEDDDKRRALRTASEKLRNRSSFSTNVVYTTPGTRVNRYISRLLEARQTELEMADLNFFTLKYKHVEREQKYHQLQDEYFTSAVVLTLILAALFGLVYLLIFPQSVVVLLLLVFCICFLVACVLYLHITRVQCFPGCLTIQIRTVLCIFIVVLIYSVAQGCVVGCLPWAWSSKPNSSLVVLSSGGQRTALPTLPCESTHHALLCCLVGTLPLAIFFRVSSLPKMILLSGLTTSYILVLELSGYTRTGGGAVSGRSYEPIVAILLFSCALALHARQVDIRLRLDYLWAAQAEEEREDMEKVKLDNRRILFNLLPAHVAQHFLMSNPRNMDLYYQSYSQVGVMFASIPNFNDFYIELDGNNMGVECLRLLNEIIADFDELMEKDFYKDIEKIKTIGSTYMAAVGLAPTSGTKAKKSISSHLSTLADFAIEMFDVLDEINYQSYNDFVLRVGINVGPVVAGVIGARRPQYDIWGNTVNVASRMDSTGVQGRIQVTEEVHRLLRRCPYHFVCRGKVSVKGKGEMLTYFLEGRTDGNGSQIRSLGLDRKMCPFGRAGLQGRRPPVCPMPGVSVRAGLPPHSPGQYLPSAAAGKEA
Description: Cells were then incubated for 1 h at 37°C and 5% CO2. Cells were then treated with varying concentrations of inhibitors for 30 min, followed by treatment with calcium ionophore A23187 (3 μM) in 500 μM 3-isobutyl-1-methylxanthine (IBMX), a phosphodiesterase inhibitor, for 1 h at RT (Sigma Aldrich, St. Louis, MO). Finally, Cisbio HTRF detection reagents were added and incubated for 1–24 h at RT. Plates were read according to manufacturer’s protocol on an HTRF-compatible plate reader at 620 and 665 nm cAMP concentrations were interpolated from a cAMP standard curve. […] For cytotoxicity assays, compounds were tested at 30 μM and this protocol was used with the exception of detection reagents; CellTiter-Glo 2.0 reagent was used according to manufacturer’s protocol and luminescence was read on the Synergy Neo2 plate reader. Data are normalized to cells treated with vehicle (100%) or 2% tween (0%) and are represented as the percent of vehicle, from the average of three independent experiments (N = 3).

CaM = target: T7, CaM (Homo sapiens, UniProt P0DP23); experiment: 1H-15N HSQC NMR of 15N-CaM with compound; assay type: binding; settings: 5 equivalent molar excess over 100 μM CaM
T7 construct: 6X-His-GST (N, cleaved yes); made in house; host or cells: E. coli BL21-CodonPlus (DE3)-RIPL in M9 minimal media with 15NH4Cl
Description: All NMR samples contained 100 μM ^15N-CaM in 20 mM HEPES pH 7.4, 100 mM KCl, 10 mM CaCl2, 10% D2O, and 5% DMSO. Initial spectra were collected for CaM alone before individual compounds were titrated to observe chemical shift perturbations. All spectra were acquired at 298 K using a 600 MHz Bruker Avance NEO NMR spectrometer with a triple resonance gradient cryoprobe. NMR spectra were processed using NMRPipe and analyzed using NMRFAM-SPARKY.

AC8 = target: T8, AC8 (Homo sapiens, UniProt P40145); experiment: cAMP accumulation assay, AC8-HEK Δ3/6 KO cells; assay type: cell-based; settings: CDI analog SAR set, 3 μM A23187; read-out: IC50 (μM) ± SEM AC8
T8 construct: expressed in transfected cells
T8 sequence (P40145 whole entry, species assumed): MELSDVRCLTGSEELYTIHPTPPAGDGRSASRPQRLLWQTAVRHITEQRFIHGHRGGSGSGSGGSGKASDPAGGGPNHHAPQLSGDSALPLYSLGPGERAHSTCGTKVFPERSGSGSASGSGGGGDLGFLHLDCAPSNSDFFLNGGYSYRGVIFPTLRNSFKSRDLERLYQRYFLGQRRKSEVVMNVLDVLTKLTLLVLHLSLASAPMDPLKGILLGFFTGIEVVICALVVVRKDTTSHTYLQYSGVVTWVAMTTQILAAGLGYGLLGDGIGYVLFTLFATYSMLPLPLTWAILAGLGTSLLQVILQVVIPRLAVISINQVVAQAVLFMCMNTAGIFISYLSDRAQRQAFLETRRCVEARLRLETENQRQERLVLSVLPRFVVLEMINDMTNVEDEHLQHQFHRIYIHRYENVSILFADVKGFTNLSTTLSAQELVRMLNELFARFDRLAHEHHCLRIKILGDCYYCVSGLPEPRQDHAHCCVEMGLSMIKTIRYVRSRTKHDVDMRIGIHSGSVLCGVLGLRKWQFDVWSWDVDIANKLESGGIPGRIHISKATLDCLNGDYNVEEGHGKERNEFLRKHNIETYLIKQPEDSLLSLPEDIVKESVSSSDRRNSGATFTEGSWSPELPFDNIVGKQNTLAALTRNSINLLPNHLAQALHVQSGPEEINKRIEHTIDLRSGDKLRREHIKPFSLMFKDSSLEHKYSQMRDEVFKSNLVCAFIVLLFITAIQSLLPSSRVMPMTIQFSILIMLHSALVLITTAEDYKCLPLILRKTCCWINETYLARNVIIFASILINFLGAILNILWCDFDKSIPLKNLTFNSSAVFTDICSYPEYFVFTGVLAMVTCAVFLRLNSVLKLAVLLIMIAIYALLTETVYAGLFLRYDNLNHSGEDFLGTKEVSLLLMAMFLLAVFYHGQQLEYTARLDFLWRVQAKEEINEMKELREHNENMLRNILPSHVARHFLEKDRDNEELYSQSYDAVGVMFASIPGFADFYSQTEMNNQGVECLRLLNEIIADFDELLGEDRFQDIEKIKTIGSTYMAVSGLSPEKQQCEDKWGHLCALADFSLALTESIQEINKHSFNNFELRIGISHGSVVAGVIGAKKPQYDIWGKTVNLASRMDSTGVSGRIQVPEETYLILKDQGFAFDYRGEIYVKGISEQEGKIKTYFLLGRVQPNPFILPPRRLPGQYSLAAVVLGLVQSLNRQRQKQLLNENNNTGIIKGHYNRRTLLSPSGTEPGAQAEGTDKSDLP
Description: (§1) Cryopreserved HEK293 cells with AC3 and AC6 knocked out, and stably expressing AC1, AC2, AC5, or AC8 (AC1-HEK Δ3/6 KO, AC2-HEK Δ3/6 KO, AC5-HEK Δ3/6 KO, or AC8-HEK Δ3/6 KO cells, respectively; [Soto-Velasquez et al., 2018]) were plated at 5,000 cells/well. Cells were then incubated for 1 h at 37°C and 5% CO2. Cells were then treated with varying concentrations of inhibitors for 30 min, followed by treatment with calcium ionophore A23187 (3 μM) in 500 μM 3-isobutyl-1-methylxanthine (IBMX), a phosphodiesterase inhibitor, for 1 h at RT (Sigma Aldrich, St. Louis, MO). Finally, Cisbio HTRF detection reagents were added and incubated for 1–24 h at RT. Plates were read according to manufacturer’s protocol on an HTRF-compatible plate reader at 620 and 665 nm cAMP concentrations were interpolated from a cAMP standard curve. […] For cytotoxicity assays, compounds were tested at 30 μM and this protocol was used with the exception of detection reagents; CellTiter-Glo 2.0 reagent was used according to manufacturer’s protocol and luminescence was read on the Synergy Neo2 plate reader. Data are normalized to cells treated with vehicle (100%) or 2% tween (0%) and are represented as the percent of vehicle, from the average of three independent experiments (N = 3).

AC2 = target: T9, AC2 (Homo sapiens, UniProt Q08462); experiment: cAMP accumulation assay, AC2-HEK Δ3/6 KO cells; assay type: cell-based; settings: for % Inhibited at AC2 ± SEM: 30 μM; for inhibition at 30 µM: read-out: % Inhibited at AC2 ± SEM
T9 construct: expressed in transfected cells
T9 sequence (Q08462 whole entry): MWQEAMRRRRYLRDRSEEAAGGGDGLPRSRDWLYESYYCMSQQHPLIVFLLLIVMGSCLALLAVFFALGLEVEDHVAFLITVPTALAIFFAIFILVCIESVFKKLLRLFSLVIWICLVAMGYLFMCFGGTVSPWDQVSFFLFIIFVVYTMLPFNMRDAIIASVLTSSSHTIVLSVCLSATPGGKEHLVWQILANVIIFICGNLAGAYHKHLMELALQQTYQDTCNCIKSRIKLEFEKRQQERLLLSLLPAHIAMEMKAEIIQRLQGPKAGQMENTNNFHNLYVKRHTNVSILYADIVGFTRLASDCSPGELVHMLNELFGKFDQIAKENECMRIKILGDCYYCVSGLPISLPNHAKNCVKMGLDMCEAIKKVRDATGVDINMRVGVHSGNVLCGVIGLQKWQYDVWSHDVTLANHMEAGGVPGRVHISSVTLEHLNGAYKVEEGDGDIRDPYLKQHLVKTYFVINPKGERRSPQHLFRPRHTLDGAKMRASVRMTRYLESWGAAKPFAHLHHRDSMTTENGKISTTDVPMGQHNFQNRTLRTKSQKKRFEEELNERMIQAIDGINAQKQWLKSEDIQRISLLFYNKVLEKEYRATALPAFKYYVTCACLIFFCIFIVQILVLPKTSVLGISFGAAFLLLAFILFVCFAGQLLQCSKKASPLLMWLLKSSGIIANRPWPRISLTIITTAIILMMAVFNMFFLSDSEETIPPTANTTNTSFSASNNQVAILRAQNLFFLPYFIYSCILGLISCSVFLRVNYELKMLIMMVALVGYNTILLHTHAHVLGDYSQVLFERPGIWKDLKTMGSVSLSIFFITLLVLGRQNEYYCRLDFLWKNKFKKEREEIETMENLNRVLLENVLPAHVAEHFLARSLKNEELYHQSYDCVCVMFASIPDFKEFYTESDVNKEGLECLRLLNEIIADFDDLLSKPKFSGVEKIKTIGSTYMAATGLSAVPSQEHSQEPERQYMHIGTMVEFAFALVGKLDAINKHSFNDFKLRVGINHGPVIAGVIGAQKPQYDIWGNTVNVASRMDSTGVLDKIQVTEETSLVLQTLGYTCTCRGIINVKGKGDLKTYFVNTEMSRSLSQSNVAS
Description: as §1

AC5 = target: T10, AC5 (Homo sapiens, UniProt O95622); experiment: cAMP accumulation assay, AC5-HEK Δ3/6 KO cells; assay type: cell-based; settings: for inhibition at 30 µM: read-out: % Inhibited at AC5 ± SEM
T10 construct: expressed in transfected cells
T10 sequence (O95622 whole entry, species assumed): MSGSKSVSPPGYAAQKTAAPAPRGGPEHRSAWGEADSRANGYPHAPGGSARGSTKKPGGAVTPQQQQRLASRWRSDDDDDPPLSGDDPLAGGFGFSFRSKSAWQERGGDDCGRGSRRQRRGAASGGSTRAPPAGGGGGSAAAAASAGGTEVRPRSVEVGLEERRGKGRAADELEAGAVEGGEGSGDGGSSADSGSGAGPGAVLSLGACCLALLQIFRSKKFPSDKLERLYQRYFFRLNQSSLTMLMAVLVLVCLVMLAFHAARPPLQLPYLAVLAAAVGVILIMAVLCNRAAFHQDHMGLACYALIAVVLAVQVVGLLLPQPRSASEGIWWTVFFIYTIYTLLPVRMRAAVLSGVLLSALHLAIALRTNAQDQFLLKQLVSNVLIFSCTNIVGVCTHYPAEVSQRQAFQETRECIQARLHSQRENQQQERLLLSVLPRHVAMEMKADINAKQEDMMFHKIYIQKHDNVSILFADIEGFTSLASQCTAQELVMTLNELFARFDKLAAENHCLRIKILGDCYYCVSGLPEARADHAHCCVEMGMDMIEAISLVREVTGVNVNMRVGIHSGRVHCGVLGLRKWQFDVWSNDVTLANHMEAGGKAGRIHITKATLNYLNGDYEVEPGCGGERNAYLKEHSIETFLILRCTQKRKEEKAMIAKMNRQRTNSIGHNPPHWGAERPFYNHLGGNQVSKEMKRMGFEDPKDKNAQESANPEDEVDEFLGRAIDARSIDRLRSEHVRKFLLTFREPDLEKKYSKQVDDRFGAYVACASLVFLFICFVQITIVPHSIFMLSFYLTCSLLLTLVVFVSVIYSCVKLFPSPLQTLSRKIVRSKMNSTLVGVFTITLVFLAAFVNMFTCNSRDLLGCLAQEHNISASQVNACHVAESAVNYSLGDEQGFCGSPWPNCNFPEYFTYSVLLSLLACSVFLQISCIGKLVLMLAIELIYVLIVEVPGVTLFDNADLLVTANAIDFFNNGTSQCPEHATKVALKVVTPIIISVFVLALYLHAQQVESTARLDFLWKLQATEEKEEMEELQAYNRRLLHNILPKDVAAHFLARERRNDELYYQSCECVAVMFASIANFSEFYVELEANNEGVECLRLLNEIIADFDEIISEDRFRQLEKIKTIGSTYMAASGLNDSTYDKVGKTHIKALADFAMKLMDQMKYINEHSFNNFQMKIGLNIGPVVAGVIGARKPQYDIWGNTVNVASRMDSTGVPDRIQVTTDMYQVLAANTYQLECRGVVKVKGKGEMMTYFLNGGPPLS
Description: as §1

[2] = Cytotoxicity assay (CellTiter-Glo 2.0) in AC1-HEK Δ3/6 KO cells; assay type: cell-based; settings: human, percent of vehicle, read-out: % Viable Cells at AC1 30 μM
Description: as §1

[3] = initial examination, 10,000 cells per well, 3 μM A23187, 1 h RT, read-out: AC1 IC50 ± SEM
[4] = CDI analog SAR set, 3 μM A23187, read-out: IC50 (μM) ± SEM AC1

| IC50 (AC1-C1b/CaM) | Ki (AC1-C1b/CaM) | Ki (μM) AC8 NT (AC8-Nt/CaM) | Ki ratio (AC8 NT/AC1) (AC8-Nt/CaM) | Ki (μM) AC8 C2b (AC8-C2b/CaM) | Ki ratio (AC8-C2b/AC1) (AC8-C2b/CaM) | IC50 (AC1/CaM PPI) | IC50 (AC8/CaM PPI) | IC50 (AC1; [3]) | chemical shift perturbations (CSP) of 15N-CaM (CaM) | AC1-CaM FP % inhib (AC1-C1b/CaM) | fold selective for AC8 over AC1 in the NanoBiT assay (AC8/CaM PPI) | inhibition of AC1 activity (efficacy) (AC1) | IC50 (AC1; [4]) | inhibition of AC1 activity (AC1) | IC50 (AC8) | % Inhibited at AC2 ± SEM (AC2) | inhibition at 30 µM (AC2) | Structure (SMILES) | viability at 30 min [1] | viability at 30 min, 30 μM [2] | other results |
| --- | --- | --- | --- | --- | --- | --- | --- | --- | --- | --- | --- | --- | --- | --- | --- | --- | --- | --- | --- | --- | --- |
| 73.5 µM | 17.4 µM | n/i | AC1 Selective | n/i | AC1 Selective | 16.1 ± 1.13 µM | 13.1 ± 1.19 µM | 31 ± 6.63 µM | largest CSPs | – | – | – | – | – | – | – | – | CC(=O)Oc1c(Sc2ccc(Cl)cc2)c(C)nn1C(C)(C)C [Compound 13] | 96% | – | cell viability reduced at highest concentration tested (HEK293T cells; 316 μM): ~50%; cell viability at ∼300 μM (HEK293T cells; ∼300 μM): decrease in cell viability |
| 38.4 µM | 9.1 µM | n/i | AC1 Selective | n/i | AC1 Selective | 16.1 ± 1.12 µM | 5.71 ± 1.22 µM | 6.7 ± 0.7 µM | modest chemical shift changes | 54% | ~3 fold | ~70% | – | – | – | – | – | O=S(=O)(Nc1ccc2c(c1)N(S(=O)(=O)c1ccc(F)cc1)CCC2)c1cccc(F)c1 [Compound 18] | 100% | – | viability at 30 min, 316 µM ([1]; 316 μM, read-out: cell viability at highest concentration tested): 90% |
| 9.9 µM | – | n/i | AC1 Selective | n/i | AC1 Selective | 25.6 ± 1.42 µM | 6.8 ± 1.19 µM | 8.77 ± 4.47 µM | modest chemical shift changes | 59% | 2- to 4 fold | ~50% | – | – | – | – | – | Cn1cc(C(=O)Nc2ccc(Cl)cc2Cl)c2[nH]c(=O)n(-c3ccc(Cl)cc3)c(=O)c21 [Compound 21] | 100% | – | – |
| – | – | – | – | – | – | – | – | – | – | – | – | – | 2.75 ± 0.82 µM | 100% | 2.7 ± 0.24 µM | 15 ± 11% | < 16% | CCc1cc(C(c2cccs2)N2CCC(C)CC2)c(NC(=O)c2ccco2)s1 (stereo not shown) [Compound 24] | – | 77% | % Inhibited at AC5 ± SEM (AC5; 30 μM): 16 ± 11%; inhibition at 30 µM (AC5): < 16% |
| – | – | – | – | – | – | – | – | – | – | – | – | – | 6.39 ± 0.89 µM | 100% | 8.85 ± 2.7 µM | – | 52 ± 11% | Cc1cc(C(c2cccs2)N2CCN(C)CC2)c(NC(=O)c2ccco2)s1 (stereo not shown) [Compound 25] | – | 94% | inhibition at 30 µM (AC5): 46 ± 5% |
| – | – | – | – | – | – | – | – | – | – | – | – | – | 0.89 ± 0.04 µM | 100% | 1.86 ± 0.32 µM | 10 ± 8% | < 16% | O=C(Nc1sc2c(c1C(c1cccs1)N1CCOCC1)CCCC2)c1ccco1 (stereo not shown) [Compound 32] | – | 100% | – |
